Columns and labels:
[1] = target: USP9X (Homo sapiens (Human), UniProt Q93008); test: USP9X enzyme activity experiment; type: biochemical; settings: inhibition of USP9X enzyme, Ub-Rho 110 substrate
Procedure: • 1). A 1× analysis buffer was formulated, consisting of a modified Tris buffer (pH 7.5). • 2). Compound solutions of different concentrations were formulated with final concentrations of 3,000/1,000/300/100/30/10/3/1 nM (containing 1% DMSO), and added into a 384-well plate. • 3). A USP9X enzyme solution was formulated with the 1× analysis buffer. • 4). 10 μL of the USP9X enzyme solution was added into the 384-well plate, and incubated with the compounds at room temperature for 1 h. • 5). Rhodamine 110 Protein was added into the 1× analysis buffer to formulate a substrate working solution. • 6). 10 μL of the substrate solution was added into each reaction well, centrifuged for 30 s, and mixed uniformly for 30 s. • 7). The 384-well plate was placed on a microplate reader for detection, with an excitation wavelength of 480 nm and an emission wavelength of 540 nm. Test was conducted for 30 minutes and the data was collected. • 8. Fitting the dose-effect curve.
With the log value of the compound concentration as the X axis and the percentage inhibition rate as the Y axis, a dose-effect curve was fitted with the log(inhibitor) vs. response-variable slope of the analysis software GraphPad Prism 5, and the IC50 value of the activity of each compound against USP9X was obtained.

[2] = target: recombinant human PKR enzyme (Homo sapiens (Human), UniProt P30613); test: Pyruvate kinase (PKR) activity experiment; type: biochemical; settings: activation of recombinant human PKR enzyme
recombinant human PKR enzyme, sequence (P30613 whole entry): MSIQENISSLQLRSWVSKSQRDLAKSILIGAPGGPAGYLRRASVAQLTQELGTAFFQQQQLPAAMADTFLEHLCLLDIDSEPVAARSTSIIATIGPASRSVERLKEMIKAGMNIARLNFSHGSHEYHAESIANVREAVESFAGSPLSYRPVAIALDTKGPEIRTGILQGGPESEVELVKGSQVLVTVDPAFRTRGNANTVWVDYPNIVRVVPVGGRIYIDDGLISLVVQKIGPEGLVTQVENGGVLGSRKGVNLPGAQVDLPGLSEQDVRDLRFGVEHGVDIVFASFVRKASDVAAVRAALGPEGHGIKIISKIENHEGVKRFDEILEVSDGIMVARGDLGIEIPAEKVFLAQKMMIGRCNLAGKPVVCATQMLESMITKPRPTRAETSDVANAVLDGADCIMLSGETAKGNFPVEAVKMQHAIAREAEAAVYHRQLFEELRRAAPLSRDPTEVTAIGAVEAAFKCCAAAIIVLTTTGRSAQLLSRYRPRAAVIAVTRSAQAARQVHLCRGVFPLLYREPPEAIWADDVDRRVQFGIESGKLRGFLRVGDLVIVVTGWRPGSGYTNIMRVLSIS

USP9X, sequence (Q93008 whole entry): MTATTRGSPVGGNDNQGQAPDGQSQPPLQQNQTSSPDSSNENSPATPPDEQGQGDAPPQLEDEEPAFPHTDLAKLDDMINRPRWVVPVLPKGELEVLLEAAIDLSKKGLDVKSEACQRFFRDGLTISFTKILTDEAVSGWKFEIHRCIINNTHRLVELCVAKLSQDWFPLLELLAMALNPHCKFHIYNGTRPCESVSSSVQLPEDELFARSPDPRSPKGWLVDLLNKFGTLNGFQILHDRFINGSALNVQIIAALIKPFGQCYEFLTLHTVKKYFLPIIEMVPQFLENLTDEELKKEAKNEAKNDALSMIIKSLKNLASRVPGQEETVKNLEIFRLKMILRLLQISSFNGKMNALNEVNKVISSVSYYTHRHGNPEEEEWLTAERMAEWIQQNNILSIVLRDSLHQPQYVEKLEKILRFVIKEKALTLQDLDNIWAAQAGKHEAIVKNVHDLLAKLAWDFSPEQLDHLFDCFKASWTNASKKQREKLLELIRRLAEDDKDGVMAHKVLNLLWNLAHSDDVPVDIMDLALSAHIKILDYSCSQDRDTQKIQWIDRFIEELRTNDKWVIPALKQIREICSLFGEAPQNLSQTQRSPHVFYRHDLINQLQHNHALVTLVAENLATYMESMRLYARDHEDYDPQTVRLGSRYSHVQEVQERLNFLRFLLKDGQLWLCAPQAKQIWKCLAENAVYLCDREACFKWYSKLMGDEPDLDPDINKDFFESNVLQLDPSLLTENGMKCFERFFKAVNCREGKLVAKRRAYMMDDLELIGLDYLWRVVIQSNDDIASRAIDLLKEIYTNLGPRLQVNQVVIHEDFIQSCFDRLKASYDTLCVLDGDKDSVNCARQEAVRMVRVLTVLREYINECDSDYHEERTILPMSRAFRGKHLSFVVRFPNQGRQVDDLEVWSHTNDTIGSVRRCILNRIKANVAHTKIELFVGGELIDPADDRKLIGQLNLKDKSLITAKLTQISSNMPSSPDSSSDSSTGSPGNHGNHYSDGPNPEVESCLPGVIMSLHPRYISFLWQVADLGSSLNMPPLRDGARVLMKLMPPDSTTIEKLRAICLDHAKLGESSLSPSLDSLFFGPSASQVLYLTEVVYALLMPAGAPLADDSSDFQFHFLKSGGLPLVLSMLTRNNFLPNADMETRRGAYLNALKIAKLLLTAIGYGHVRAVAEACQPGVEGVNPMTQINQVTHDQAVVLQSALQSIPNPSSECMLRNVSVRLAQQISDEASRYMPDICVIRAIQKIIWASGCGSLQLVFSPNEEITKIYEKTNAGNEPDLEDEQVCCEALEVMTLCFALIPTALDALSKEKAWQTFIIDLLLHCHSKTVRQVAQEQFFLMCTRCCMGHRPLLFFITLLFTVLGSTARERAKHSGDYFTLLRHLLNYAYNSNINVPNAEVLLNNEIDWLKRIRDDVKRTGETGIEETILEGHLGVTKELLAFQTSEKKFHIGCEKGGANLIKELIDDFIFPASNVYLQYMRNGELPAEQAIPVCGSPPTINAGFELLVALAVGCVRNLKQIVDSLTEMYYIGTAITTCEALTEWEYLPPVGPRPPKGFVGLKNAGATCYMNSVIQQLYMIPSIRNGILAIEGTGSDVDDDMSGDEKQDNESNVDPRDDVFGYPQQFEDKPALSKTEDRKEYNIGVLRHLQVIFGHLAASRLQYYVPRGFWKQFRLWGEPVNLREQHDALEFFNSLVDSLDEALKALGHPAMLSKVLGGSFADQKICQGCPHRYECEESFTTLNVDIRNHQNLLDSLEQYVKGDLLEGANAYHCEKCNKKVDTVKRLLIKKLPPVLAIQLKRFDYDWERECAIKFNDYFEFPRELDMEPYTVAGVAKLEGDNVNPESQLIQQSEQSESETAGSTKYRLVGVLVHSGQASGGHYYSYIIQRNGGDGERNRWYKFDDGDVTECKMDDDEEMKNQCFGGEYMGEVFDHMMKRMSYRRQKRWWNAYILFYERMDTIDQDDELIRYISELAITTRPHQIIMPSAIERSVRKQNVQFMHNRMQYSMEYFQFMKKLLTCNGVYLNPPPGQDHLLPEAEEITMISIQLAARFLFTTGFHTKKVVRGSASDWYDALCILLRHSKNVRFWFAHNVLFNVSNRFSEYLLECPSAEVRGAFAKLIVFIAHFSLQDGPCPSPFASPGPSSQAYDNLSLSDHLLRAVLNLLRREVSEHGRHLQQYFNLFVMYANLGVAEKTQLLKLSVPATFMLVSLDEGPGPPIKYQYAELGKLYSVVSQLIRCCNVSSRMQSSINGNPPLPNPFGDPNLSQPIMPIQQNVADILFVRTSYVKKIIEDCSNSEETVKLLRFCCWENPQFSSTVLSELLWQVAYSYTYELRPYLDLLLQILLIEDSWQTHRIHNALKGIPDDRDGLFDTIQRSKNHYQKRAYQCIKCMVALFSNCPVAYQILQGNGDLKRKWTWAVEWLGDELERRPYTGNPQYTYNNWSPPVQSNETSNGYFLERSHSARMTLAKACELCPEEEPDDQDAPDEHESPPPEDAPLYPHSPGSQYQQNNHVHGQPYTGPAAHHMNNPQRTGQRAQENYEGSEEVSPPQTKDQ

IC50 [1] | AC50 [2] | Compound
101 to 300 nM | 101 to 300 nM | O=C([C@H](CO)c1ccccc1)N1CC(=C2CN(S(=O)(=O)c3ccccn3)C2)C1 [Compound 4, (S)-3-hydroxy-2-phenyl-1-(1′-(pyridin-2-ylsulfonyl)-1′,4′-dihydro-2H,2′H-[3.3′-diazetidinylidene]-1(4H)-yl)propan-1-one]
< 100 nM | < 100 nM | COc1ccc(S(=O)(=O)N2CC(=C3CN(C(=O)[C@H](CO)c4ccccc4)C3)C2)cc1 [Compound 5, (S)-3-hydroxy-1-(1′-((4-methoxyphenyl)sulfonyl)-1′,4′-dihydro-2H,2′H-[3,3′-diazetidinylidene]-1(4H)-yl)-2-phenylpropan-1-one]

More lines, now with the values behind:

Compound | IC50 [1] | AC50 [2]
O=C([C@H](CO)c1ccccc1)N1CC(=C2CN(S(=O)(=O)c3cnc4c(c3)OCCO4)C2)C1 [Compound 1, (S)-1-(1′-((2,3-dihydro-[1,4]dioxino[2,3-b]pyridin-7-yl)sulfonyl)-1′,4′-dihydro-2H,2′H-[3,3′-diazetidinylidene]-1(4H)-yl)-3-hydroxy-2-phenylpropan-1-one] | < 100 nM | 300 to 1000 nM
O=C([C@H](CO)c1ccccc1)N1CC(=C2CN(S(=O)(=O)c3ccc4c(c3)OCCO4)C2)C1 [Compound 2, (S)-1-(1′-((2,3-dihydrobenzo[b][1,4]dioxin-6-yl)sulfonyl)-1′,4′-dihydro-2H,2′H-[3,3′-diazetidinylidene]-1(4H)-yl)-3-hydroxy-2-phenylpropan-1-one] | < 100 nM | < 100 nM
O=C([C@H](CO)c1ccccc1)N1CC(=C2CN(S(=O)(=O)c3ccc4ncsc4c3)C2)C1 [Compound 3, (S)-1-(1′-(benzo[d]thiazol-6-ylsulfonyl)-1′,4′-dihydro-2H,2′H-[3,3′-diazetidinylidene]-1(4H)-yl)-3-hydroxy-2-phenylpropan-1-one] | 300 to 1000 nM | < 100 nM

Reference: patent US20250145635A1, “COMPOUND CONTAINING BIS(AZANYLYLIDENE) SULFONYL STRUCTURE AND USE THEREOF IN MEDICINE” (SCINNOHUB PHARMACEUTICAL CO., LTD., priority 2021, published 2025)
